From publication PMC12586182 (Frontiers in Oncology, 2025)

What was measured:
ABL = target: T1, ABL (Homo sapiens, UniProt P00519); assay: Kinase panel profiling at 1 µmol/L (mobility shift assay, Carna); assay type: biochemical; conditions: 1 µmol/L of BTK inhibitor
T1 construct: purchased Carna Biosciences

ITK = target: T2, ITK (Homo sapiens, UniProt Q08881); assay: as above; assay type: biochemical; conditions: 1 µmol/L of BTK inhibitor
T2 construct: purchased Carna Biosciences
T2 sequence (Q08881 1-620): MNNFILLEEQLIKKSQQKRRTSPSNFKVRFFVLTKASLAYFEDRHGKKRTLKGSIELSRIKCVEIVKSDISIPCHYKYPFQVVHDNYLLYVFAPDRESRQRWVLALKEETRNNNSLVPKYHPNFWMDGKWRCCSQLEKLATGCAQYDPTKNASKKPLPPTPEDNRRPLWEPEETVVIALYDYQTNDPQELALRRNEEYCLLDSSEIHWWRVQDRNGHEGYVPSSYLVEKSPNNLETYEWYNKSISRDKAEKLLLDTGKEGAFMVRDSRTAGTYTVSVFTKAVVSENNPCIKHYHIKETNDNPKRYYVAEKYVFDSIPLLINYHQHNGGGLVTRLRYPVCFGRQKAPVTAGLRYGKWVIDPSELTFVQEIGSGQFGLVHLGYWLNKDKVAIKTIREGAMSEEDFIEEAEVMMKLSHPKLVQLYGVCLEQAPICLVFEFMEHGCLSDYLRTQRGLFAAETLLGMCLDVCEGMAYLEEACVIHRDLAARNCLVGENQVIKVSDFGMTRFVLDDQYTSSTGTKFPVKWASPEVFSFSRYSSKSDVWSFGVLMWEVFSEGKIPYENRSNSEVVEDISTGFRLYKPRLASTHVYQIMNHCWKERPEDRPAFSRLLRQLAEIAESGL

RON = target: T3, RON (Homo sapiens, UniProt Q04912); assay: as above; assay type: biochemical; conditions: 1 µmol/L of BTK inhibitor
T3 construct: purchased Carna Biosciences

MAPKAPK2 = target: T4, MAPKAPK2 (Homo sapiens, UniProt P49137); assay: as above; assay type: biochemical; conditions: 1 µmol/L of BTK inhibitor
T4 construct: purchased Carna Biosciences

MARK3 = target: T5, MARK3 (Homo sapiens, UniProt P27448); assay: as above; assay type: biochemical; conditions: 1 µmol/L of BTK inhibitor
T5 construct: purchased Carna Biosciences

PAK1 = target: T6, PAK1 (Homo sapiens, UniProt Q13153); assay: as above; assay type: biochemical; conditions: 1 µmol/L of BTK inhibitor
T6 construct: purchased Carna Biosciences

PKACβ = target: T7, PKACβ (Homo sapiens, UniProt P22694); assay: as above; assay type: biochemical; conditions: 1 µmol/L of BTK inhibitor
T7 construct: purchased Carna Biosciences

PKCδ = target: T8, PKCδ (Homo sapiens, UniProt Q05655); assay: as above; assay type: biochemical; conditions: 1 µmol/L of BTK inhibitor
T8 construct: purchased Carna Biosciences

PKCε = target: T9, PKCε (Homo sapiens, UniProt Q02156); assay: as above; assay type: biochemical; conditions: 1 µmol/L of BTK inhibitor
T9 construct: purchased Carna Biosciences
T9 sequence (Q02156 1-737): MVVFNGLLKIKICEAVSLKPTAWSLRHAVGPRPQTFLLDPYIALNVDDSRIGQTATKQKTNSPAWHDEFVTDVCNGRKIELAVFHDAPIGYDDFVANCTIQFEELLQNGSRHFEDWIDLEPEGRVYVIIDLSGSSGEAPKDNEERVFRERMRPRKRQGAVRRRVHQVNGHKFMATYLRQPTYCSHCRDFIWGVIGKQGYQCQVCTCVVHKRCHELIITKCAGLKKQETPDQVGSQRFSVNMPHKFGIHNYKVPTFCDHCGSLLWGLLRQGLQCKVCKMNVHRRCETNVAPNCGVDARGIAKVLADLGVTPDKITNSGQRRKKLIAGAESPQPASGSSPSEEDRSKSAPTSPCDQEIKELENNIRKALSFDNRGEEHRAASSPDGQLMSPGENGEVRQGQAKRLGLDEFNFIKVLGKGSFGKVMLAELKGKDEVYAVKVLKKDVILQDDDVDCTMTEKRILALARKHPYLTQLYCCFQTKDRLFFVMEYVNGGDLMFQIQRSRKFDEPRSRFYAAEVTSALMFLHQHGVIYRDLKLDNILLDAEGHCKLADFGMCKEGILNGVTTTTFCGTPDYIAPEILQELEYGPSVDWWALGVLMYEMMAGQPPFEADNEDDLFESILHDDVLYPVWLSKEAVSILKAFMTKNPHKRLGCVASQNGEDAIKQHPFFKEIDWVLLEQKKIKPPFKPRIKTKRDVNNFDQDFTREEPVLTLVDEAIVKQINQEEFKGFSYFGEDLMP

PLK2 = target: T10, PLK2 (Homo sapiens, UniProt Q9NYY3); assay: as above; assay type: biochemical; conditions: 1 µmol/L of BTK inhibitor
T10 construct: purchased Carna Biosciences

PLK3 = target: T11, PLK3 (Homo sapiens, UniProt Q9H4B4); assay: as above; assay type: biochemical; conditions: 1 µmol/L of BTK inhibitor
T11 construct: purchased Carna Biosciences

TEC = target: T12, TEC (Homo sapiens, UniProt P42680); assay: Kinase enzyme activity assay (mobility shift assay, Carna); conditions: for Percentage inhibition of kinase enzyme activity: TEC, 1 µmol/L of BTK inhibitor
T12 sequence (P42680 1-631): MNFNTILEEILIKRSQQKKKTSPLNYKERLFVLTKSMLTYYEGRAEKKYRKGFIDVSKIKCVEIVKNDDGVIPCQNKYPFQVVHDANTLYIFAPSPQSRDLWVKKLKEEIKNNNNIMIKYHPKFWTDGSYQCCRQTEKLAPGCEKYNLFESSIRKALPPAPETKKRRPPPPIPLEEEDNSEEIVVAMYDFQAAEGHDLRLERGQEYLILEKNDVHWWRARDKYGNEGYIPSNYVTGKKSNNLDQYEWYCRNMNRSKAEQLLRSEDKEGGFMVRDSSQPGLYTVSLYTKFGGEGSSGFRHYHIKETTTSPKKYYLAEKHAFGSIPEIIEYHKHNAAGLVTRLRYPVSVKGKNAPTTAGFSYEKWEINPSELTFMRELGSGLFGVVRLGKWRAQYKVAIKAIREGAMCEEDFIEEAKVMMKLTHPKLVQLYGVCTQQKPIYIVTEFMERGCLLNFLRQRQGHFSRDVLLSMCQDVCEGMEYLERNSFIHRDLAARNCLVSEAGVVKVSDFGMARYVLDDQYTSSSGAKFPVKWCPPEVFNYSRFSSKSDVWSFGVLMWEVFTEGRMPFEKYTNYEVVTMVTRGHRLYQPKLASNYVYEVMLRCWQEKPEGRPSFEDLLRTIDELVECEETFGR

T1 sequence (P00519 whole entry): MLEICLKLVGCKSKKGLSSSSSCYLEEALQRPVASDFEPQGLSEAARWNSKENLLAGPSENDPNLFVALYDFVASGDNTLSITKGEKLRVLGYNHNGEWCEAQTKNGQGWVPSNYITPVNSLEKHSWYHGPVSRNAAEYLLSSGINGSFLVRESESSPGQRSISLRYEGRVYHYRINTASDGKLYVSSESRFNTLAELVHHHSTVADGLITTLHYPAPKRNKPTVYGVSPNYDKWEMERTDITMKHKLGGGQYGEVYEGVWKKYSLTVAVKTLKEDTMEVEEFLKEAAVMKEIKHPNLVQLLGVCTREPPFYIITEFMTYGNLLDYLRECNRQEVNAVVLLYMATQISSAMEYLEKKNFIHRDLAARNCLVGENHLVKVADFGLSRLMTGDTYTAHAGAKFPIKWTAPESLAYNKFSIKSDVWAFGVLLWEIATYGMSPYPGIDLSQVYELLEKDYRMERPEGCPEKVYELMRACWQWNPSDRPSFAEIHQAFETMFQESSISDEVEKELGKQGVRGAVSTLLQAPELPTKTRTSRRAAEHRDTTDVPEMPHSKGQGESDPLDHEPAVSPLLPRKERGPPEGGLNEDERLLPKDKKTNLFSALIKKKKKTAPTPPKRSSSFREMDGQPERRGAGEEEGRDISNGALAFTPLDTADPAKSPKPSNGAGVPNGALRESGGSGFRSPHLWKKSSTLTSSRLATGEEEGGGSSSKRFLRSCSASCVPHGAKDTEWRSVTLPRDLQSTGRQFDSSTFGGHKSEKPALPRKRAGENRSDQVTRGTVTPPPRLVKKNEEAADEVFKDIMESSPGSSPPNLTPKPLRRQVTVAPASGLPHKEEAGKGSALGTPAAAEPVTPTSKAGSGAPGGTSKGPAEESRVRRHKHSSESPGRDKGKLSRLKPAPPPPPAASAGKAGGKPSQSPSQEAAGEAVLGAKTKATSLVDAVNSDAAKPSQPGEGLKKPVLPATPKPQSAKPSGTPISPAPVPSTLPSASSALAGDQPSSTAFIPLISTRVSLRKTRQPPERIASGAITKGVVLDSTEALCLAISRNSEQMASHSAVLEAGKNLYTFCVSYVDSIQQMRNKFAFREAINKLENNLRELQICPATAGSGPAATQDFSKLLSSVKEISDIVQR
T3 sequence (Q04912 25-1400): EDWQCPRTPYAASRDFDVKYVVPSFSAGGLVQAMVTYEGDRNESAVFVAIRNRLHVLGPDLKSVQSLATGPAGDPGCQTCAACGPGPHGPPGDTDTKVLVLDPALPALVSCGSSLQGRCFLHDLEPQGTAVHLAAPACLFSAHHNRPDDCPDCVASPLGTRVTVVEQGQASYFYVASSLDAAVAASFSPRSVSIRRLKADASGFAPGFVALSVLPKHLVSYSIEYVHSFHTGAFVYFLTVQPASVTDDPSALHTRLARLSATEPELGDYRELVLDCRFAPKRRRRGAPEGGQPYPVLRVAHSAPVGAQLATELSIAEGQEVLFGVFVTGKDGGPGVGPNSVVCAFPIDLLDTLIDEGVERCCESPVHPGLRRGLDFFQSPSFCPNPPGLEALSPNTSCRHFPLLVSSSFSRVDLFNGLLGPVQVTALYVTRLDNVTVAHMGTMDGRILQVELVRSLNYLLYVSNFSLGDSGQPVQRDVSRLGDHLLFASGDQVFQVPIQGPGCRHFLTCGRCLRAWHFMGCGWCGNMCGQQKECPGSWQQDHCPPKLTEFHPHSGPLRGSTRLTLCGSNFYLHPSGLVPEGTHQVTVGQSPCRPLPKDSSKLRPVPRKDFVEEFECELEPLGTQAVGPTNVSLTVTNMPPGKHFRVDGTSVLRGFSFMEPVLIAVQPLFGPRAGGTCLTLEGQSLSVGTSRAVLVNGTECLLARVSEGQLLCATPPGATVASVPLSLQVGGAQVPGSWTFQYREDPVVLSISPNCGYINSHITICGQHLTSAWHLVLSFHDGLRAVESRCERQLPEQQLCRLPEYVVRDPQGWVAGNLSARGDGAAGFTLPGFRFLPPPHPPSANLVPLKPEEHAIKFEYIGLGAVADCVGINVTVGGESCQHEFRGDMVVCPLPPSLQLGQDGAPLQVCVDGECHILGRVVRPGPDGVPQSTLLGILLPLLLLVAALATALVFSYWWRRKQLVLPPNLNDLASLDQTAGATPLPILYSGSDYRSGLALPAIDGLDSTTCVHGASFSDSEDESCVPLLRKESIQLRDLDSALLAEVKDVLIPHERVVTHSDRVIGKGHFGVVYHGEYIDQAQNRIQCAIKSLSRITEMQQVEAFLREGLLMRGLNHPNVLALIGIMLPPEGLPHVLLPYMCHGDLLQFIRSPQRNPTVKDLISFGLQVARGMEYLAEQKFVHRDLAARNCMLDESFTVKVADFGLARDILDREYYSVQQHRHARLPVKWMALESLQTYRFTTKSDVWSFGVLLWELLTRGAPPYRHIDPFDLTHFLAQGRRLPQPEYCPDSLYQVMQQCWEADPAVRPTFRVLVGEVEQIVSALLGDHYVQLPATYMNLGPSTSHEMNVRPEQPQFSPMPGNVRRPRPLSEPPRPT
T8 sequence (Q05655 whole entry): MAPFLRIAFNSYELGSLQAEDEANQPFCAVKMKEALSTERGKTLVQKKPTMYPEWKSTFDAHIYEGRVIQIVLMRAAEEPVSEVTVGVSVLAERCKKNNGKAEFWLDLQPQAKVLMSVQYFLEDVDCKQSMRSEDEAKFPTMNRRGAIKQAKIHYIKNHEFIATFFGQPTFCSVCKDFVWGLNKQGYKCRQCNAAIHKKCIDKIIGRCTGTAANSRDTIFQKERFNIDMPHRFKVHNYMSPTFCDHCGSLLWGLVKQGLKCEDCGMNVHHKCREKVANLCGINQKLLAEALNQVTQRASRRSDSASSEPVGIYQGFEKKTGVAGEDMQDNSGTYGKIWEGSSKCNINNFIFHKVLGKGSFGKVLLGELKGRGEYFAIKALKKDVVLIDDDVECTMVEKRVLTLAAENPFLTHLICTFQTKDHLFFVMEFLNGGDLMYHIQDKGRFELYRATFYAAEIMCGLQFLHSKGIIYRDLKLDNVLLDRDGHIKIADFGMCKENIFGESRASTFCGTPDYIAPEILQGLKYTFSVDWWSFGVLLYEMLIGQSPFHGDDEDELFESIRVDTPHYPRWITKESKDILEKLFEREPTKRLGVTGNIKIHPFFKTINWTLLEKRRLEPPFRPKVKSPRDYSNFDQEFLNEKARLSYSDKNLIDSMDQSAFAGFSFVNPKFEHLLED
T5 sequence (P27448 whole entry): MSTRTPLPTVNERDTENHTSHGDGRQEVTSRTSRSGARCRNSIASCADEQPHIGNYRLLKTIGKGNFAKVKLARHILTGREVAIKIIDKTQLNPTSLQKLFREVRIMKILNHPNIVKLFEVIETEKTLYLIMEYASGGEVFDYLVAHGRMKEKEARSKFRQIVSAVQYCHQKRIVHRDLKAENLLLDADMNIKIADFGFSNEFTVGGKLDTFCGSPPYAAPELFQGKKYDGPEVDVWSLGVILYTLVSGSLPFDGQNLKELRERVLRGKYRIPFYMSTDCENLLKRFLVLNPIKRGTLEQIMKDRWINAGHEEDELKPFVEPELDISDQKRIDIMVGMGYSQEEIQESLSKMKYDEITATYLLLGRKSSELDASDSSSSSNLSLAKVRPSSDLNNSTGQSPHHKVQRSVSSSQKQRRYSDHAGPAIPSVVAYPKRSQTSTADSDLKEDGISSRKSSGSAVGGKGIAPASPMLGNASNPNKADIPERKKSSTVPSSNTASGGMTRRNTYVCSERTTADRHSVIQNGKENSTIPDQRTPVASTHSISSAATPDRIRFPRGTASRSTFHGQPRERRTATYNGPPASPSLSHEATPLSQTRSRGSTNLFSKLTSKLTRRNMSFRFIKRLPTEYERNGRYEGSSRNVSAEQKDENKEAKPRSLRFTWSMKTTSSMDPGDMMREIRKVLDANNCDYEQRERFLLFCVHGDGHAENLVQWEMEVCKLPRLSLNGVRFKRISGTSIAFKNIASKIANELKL
T11 sequence (Q9H4B4 whole entry): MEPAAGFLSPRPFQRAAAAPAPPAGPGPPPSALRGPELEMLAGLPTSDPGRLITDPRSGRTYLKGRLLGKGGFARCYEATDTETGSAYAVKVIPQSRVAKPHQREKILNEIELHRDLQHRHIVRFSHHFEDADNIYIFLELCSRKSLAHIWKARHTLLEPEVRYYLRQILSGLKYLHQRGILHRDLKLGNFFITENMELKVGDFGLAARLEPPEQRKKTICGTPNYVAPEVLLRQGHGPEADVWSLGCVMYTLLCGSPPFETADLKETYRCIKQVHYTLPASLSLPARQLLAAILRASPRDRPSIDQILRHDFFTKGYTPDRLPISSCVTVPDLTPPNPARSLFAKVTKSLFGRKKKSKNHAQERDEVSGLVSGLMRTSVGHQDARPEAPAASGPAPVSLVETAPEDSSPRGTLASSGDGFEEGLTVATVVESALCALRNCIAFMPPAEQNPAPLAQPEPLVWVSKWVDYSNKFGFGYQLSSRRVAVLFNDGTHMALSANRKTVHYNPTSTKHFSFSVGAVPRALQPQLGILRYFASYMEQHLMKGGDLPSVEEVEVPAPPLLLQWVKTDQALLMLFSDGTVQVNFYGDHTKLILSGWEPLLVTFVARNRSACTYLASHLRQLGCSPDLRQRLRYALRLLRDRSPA
T4 sequence (P49137 whole entry): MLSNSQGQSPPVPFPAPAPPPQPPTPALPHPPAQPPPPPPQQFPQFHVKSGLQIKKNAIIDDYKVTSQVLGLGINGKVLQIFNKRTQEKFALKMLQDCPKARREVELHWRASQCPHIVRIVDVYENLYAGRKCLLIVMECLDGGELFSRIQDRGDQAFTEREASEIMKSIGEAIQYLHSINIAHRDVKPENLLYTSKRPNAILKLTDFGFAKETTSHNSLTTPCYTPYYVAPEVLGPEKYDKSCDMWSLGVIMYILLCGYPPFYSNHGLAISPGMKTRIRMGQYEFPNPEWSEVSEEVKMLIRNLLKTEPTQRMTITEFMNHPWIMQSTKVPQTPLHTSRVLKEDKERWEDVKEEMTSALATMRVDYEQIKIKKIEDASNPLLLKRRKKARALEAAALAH

Row | Structure (SMILES) | Percentage inhibition of kinase enzyme activity (ABL) [%] | Percentage inhibition of kinase enzyme activity (ITK) [%] | Percentage inhibition of kinase enzyme activity (RON) [%] | Percentage inhibition of kinase enzyme activity (MAPKAPK2) [%] | Percentage inhibition of kinase enzyme activity (MARK3) [%] | Percentage inhibition of kinase enzyme activity (PAK1) [%] | Percentage inhibition of kinase enzyme activity (PKACβ) [%] | Percentage inhibition of kinase enzyme activity (PKCδ) [%] | Percentage inhibition of kinase enzyme activity (PKCε) [%] | Percentage inhibition of kinase enzyme activity (PLK2) [%] | Percentage inhibition of kinase enzyme activity (PLK3) [%] | Percentage inhibition of kinase enzyme activity (TEC) [%] | IC50 (TEC) [nM] | inhibition at 1 µM (TEC; read-out: Inhibition of TEC) [%]
1 | CC#CC(=O)N1CCC[C@H]1c1nc(-c2ccc(C(=O)Nc3ccccn3)cc2)c2c(N)nccn12 [acalabrutinib] | -2.81 | 0.87 | 7.68 | -20.51 | -2.57 | -0.37 | -13.09 | -8.64 | -8.62 | 2.47 | 1.76 | 95.77 | – | –
2 | C=CC(=O)N1CCC[C@@H](n2nc(-c3ccc(Oc4ccccc4)cc3)c3c(N)ncnc32)C1 [ibrutinib] | 7.80 | 93.10 | 6.98 | -12.65 | -5.88 | 6.57 | -9.04 | 0.52 | 7.63 | 1.72 | 1.53 | 91.92 | – | –
3 | O=C(c1ccc(Oc2ccccc2)cc1Cl)c1c[nH]c2ncnc(N[C@@H]3CC[C@@H](CO)OC3)c12 [nemtabrutinib] | 56.26 | 8.66 | 33.63 | -7.90 | 10.97 | 79.33 | 12.59 | 6.96 | 12.58 | 3.06 | 5.13 | 98.70 | 0.75 | –
4 | COc1ccc(F)cc1C(=O)NCc1ccc(-c2nn([C@@H](C)C(F)(F)F)c(N)c2C(N)=O)cc1 [pirtobrutinib] | 2.26 | 0.65 | 6.55 | -13.00 | 5.64 | 5.73 | -8.02 | -3.98 | 18.12 | 2.89 | -1.13 | 87.84 | – | > 75
5 | C=CC(=O)N1CCC([C@@H]2CCNc3c(C(N)=O)c(-c4ccc(Oc5ccccc5)cc4)nn32)CC1 [zanubrutinib] | – | -2.98 | – | – | – | – | – | – | – | – | – | – | – | –
